IC50 data for 31 molecules are collected here from patent publication US20160221965A1, “DISUBSTITUTED TRIFLUOROMETHYL PYRIMIDINONES AND THEIR USE” (BAYER PHARMA AKTIENGESELLSCHAFT, priority 2013, published 2016).

Experiment [1] addresses T1, human CCR2 (Homo sapiens, UniProt P41597).
T1 construct: host or cells: Chem-1 cell line
T1 sequence (P41597 1-360 isoform P41597-2): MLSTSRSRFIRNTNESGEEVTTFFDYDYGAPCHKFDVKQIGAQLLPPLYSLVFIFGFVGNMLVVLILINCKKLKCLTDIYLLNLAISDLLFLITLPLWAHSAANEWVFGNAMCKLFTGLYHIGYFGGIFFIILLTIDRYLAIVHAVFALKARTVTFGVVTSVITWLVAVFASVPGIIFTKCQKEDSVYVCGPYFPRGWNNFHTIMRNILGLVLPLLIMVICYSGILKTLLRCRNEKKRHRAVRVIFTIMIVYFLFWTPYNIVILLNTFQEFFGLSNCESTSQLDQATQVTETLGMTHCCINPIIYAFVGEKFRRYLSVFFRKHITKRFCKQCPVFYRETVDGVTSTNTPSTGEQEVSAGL
Put plainly: Functional Ca2+ release test (B-1). The class given is cell-based. As to conditions: Chem-1 cell line transfected with human CCR2, inhibition of MCP-1 effect, MCP-1 at EC50 (about 5 nM), Fluo-4. On the procedure: The antagonistic action of test substances on CCR2 was determined in a functional Ca^2+ release test. Binding of CCL2/MCP-1 to CCR2 leads to a change in the conformation of the receptor resulting in Gi/Gq protein activation and intracellular signal cascade. This involves, inter alia, an intracellular Ca^2+ release. The test cell used was a Chem-1 cell line transfected with human CCR2 (ChemiSCREEN™ CCR2B Calcium-Optimized FLIPR Cell Line, Merck Millipore).
(§1) The test substances were dissolved in dimethyl sulphoxide (DMSO) at a concentration of 10 mM and serially diluted with DMSO in steps of 1:3.16 for a 10-point dose/activity analysis. According to the desired test concentrations, the substances were pre-diluted in Tyrode with 2 mM CaCl2 and 0.05% BSA.
The cells, cultivated in DMEM high glucose [supplemented with 10% FCS, 1 mM pyruvate, 15 mM HEPES, 500 μg/ml geniticin and non-essential amino acids (NEAA)], were sown at 5000 cells/25 μl in 384 well, μCLEAR/black cell culture plates from Greiner (#781092) and incubated at 37° C. for 24 h. The sowing medium consisted of DMEM high glucose [supplemented with 5% FCS, 1 mM pyruvate, 15 mM HEPES, 50 U/ml penicillin, 50 μg/ml streptomycin and non-essential amino acids (NEAA)]. The medium was then removed and the cells were charged for 60 min at 37° C. with Fluo-4 dye [25 μl Tyrode with 3 μM Fluo-4 AM (1 mM DMSO stock solution), 0.4 mg/ml Brilliant Black, 2.5 mM probenicid, 0.03% Pluronic F-127]. The cells were pre-incubated for 10 min with 10 μl of the test substances diluted in buffer, and 20 μl of agonist solution (MCP-1 in Tyrode with 0.05% BSA) were then added. MCP-1 was employed at the concentration which corresponds to the EC50 which had been determined in a preliminary test (usually about 5 nM). Ca^2+ release was monitored over a period of 120 s in 1 s increments in a proprietary fluorescence imaging reader. The molar concentration of the test substance which caused 50% inhibition of the MCP-1 effect (IC50) was determined using a 4-parameter logistic function (Hill function).

Experiment [2] addresses T2, murine CCR2 (Mus musculus, UniProt P51683).
T2 construct: host or cells: U2OS β-arrestin cell line
Put plainly: Functional β-arrestin recruiting test with human MCP-1 (B-2a). The format is cell-based. As to conditions: U2OS β-arrestin cell line transfected with murine CCR2; agonist human MCP-1 at EC50 (about 3 nM). On the procedure:
The antagonistic action of test substances on CCR2 was determined in a β-arrestin test. The PathHunter β-arrestin GPCR test system (DiscoveRx Corporation, Ltd.) is a cell-based functional method for detecting binding of β-arrestin to an activated receptor. The molecular basis is a β-galactosidase complementation measured by the enzymatic conversion of a chemiluminescent substrate. The test cell used was a U2OS β-arrestin cell line transfected with murine CCR2 (93-0543C3, DiscoveRx Corporation, Ltd.).
as §1
The cells, cultivated in MEM Eagle (supplemented with 10% FCS, 50 U/ml of penicillin, 50 μg/ml of streptomycin, 250 μg/ml of hygromycin and 500 μg/ml of geniticin), were sown at 2000 cells/25 μl in 384 well, μCLEAR/black cell culture plates from Greiner (#781092) and incubated at 37° C. for 24 h. The sowing medium consisted of Opti-MEM (supplemented with 1% FCS, 50 U/ml of penicillin and 50 μg/ml of streptomycin). The cells were pre-incubated for 10 min with 10 μl of the test substances diluted in buffer, and 10 μl of agonist solution [human MCP-1 (PeproTech, #300-04) in Tyrode with 0.05% BSA] were then added. The human MCP-1 was employed at the concentration which corresponds to the EC50 which had been determined in a preliminary test (usually about 3 nM). After 90 min of incubation at 37° C., the solution was removed, and recruitment of β-arrestin to CCR2 was detected with the aid of the PathHunter detection reagent (93-001, DiscoveRx Corporation, Ltd.) according to the instructions of the manufacturer. Luminescence was measured after an incubation time of 60 min using a proprietary luminescence imaging measuring instrument. The molar concentration of the test substance which caused 50% inhibition of the MCP-1 effect (IC50) was determined using a 4-parameter logistic function (Hill function).

A word on the IC50: it is the midpoint of a concentration-inhibition curve.

T2 sequence (P51683 whole entry): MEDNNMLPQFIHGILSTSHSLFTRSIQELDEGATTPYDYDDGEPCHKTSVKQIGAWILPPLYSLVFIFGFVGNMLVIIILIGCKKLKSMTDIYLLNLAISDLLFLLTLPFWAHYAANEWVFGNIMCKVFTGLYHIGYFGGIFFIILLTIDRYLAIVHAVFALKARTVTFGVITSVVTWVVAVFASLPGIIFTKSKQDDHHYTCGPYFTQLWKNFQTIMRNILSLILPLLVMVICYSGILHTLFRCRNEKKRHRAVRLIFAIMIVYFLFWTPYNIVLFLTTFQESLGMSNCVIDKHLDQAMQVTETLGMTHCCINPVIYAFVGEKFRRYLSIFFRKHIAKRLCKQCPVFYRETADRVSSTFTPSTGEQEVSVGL

Regarding `O=c1[nH]c(C2CC2)nc(C(F)(F)F)c1Cc1ccc(Cl)c(C(F)(F)F)c1` [Example 27, 5-[4-chloro-3-(trifluoromethyl)benzyl]-2-cyclopropyl-6-(trifluoromethyl)pyrimidin-4(3H)-one], the IC50 in experiment [1] was 0.063 µM; in experiment [2] it was 0.36 µM.

`CCc1nc(C(F)(F)F)c(Cc2ccc(F)c(Cl)c2)c(=O)[nH]1` [Example 28, 5-(3-chloro-4-fluorobenzyl)-2-ethyl-6-(trifluoromethyl)pyrimidin-4(3H)-one]: the results for the IC50 in experiment [1] and in experiment [2] were 0.044 µM and 0.29 µM, respectively.

Take `Cc1ccc(Cc2c(C(F)(F)F)nc(C3CC3)[nH]c2=O)cc1Cl` [Example 29, 5-(3-chloro-4-methylbenzyl)-2-cyclopropyl-6-(trifluoromethyl)pyrimidin-4(3H)-one]: the IC50 worked out at 0.091 µM in experiment [1] and 0.8 µM in experiment [2].

In the case of `O=c1[nH]c(C2CC2)nc(C(F)(F)F)c1Cc1ccc(Cl)c(Cl)c1` [Example 30, 2-cyclopropyl-5-(3,4-dichlorobenzyl)-6-(trifluoromethyl)pyrimidin-4(3H)-one], the IC50 in experiment [1] worked out at 0.1 µM; in experiment [2], 0.55 µM.

Turning to `CCc1nc(C(F)(F)F)c(Cc2ccc(Cl)c(Cl)c2)c(=O)[nH]1` [Example 31, 5-(3,4-dichlorobenzyl)-2-ethyl-6-(trifluoromethyl)pyrimidin-4(3H)-one], the IC50 in experiment [1] was found to be 0.12 µM; in experiment [2] it was 0.22 µM.

Regarding `CCc1nc(C(F)(F)F)c(Cc2ccc(Cl)c(F)c2)c(=O)[nH]1` [Example 32, 5-(4-chloro-3-fluorobenzyl)-2-ethyl-6-(trifluoromethyl)pyrimidin-4(3H)-one], the IC50 in experiment [1] was 0.22 µM; in experiment [2], 0.54 µM.

As to `CCc1nc(C(F)(F)F)c(Oc2ccc(Cl)c(Cl)c2)c(=O)[nH]1` [Example 33, 5-(3,4-dichlorophenoxy)-2-ethyl-6-(trifluoromethyl)pyrimidin-4(3H)-one], the IC50 in experiment [1] was found to be 0.015 µM; in experiment [2], 0.074 µM.

For the molecule `O=c1[nH]c(C2CC2)nc(C(F)(F)F)c1Cc1ccc(F)c(Cl)c1` [Example 34, 5-(3-chloro-4-fluorobenzyl)-2-cyclopropyl-6-(trifluoromethyl)pyrimidin-4(3H)-one], the IC50 in experiment [1] was determined as 0.15 µM; in experiment [2] it was 0.52 µM.

In the case of `NC(=O)Cc1nc(C(F)(F)F)c(Cc2ccc(C(F)(F)F)c(Cl)c2)c(=O)[nH]1` [Example 35, 2-{5-[3-Chloro-4-(trifluoromethyl)benzyl]-6-oxo-4-(trifluoromethyl)-1,6-dihydropyrimidin-2-yl}acetamide], the IC50 in experiment [1] turned out to be 0.15 µM; in experiment [2], 3.7 µM.

On to `NC(=O)Cc1nc(C(F)(F)F)c(Oc2ccc(F)c(Cl)c2)c(=O)[nH]1` [Example 36], for which the IC50 in experiment [1] is 0.11 µM; in experiment [2] it was 1.6 µM.

Regarding `NC(=O)Cc1nc(C(F)(F)F)c(Oc2ccc(F)c(F)c2)c(=O)[nH]1` [Example 37], the IC50 stood at 0.48 µM in experiment [1] and 3.8 µM in experiment [2].

On to `NC(=O)Cc1nc(C(F)(F)F)c(Oc2cccc(Cl)c2)c(=O)[nH]1` [Example 38], for which the figures for the IC50 in experiment [1] and in experiment [2] were 0.32 µM and 3.3 µM, respectively.

Consider `NC(=O)Cc1nc(C(F)(F)F)c(Oc2ccc(Cl)c(F)c2)c(=O)[nH]1` [Example 39], for which the IC50 in experiment [1] was found to be 0.16 µM; in experiment [2], 1.8 µM.

Turning to `NC(=O)Cc1nc(C(F)(F)F)c(Cc2ccc(Cl)c(F)c2)c(=O)[nH]1` [Example 40], the IC50 in experiment [1] came to 0.15 µM; in experiment [2], 0.97 µM.

In the case of `NC(=O)Cc1nc(C(F)(F)F)c(Cc2cccc(C(F)(F)F)c2)c(=O)[nH]1` [Example 41], the results for the IC50 in experiment [1] and in experiment [2] were 0.27 µM and 2 µM, respectively.

In the case of `NC(=O)Cc1nc(C(F)(F)F)c(Cc2cc(F)cc(C(F)(F)F)c2)c(=O)[nH]1` [Example 42], the IC50 in experiment [1] is 0.4 µM; in experiment [2], 2.8 µM.

With `NC(=O)Cc1nc(C(F)(F)F)c(Cc2cccc(Cl)c2)c(=O)[nH]1` [Example 43], the IC50 in experiment [1] came to 0.27 µM; in experiment [2] it was 0.88 µM.

For `NC(=O)Cc1nc(C(F)(F)F)c(Cc2ccc(F)c(Cl)c2)c(=O)[nH]1` [Example 44], the results for the IC50 in experiment [1] and in experiment [2] were 0.09 µM and 0.42 µM, respectively.

Take `NC(=O)Cc1nc(C(F)(F)F)c(Oc2ccc(Cl)c(C(F)(F)F)c2)c(=O)[nH]1` [Example 45]: the IC50 in experiment [1] is 0.008 µM; in experiment [2], 0.13 µM.

As to `NC(=O)Cc1nc(C(F)(F)F)c(Oc2ccc(Cl)c(Cl)c2)c(=O)[nH]1` [Example 46], the IC50 in experiment [1] was 0.02 µM; in experiment [2], 0.44 µM.

In the case of `Cc1ccc(Cc2c(C(F)(F)F)nc(CC(N)=O)[nH]c2=O)cc1Cl` [Example 47], the IC50 was found to be 0.049 µM in experiment [1] and 0.83 µM in experiment [2].

As to `NC(=O)Cc1nc(C(F)(F)F)c(Cc2ccc(Cl)c(C(F)(F)F)c2)c(=O)[nH]1` [Example 48], the IC50 came out at 0.031 µM in experiment [1] and 0.3 µM in experiment [2].

As for `NC(=O)Cc1nc(C(F)(F)F)c(Oc2ccc(F)c(C(F)(F)F)c2)c(=O)[nH]1` [Example 49], the results for the IC50 in experiment [1] and in experiment [2] were 0.091 µM and 0.38 µM, respectively.

Turning to `NC(=O)Cc1nc(C(F)(F)F)c(Cc2ccc(Cl)c(Cl)c2)c(=O)[nH]1` [Example 50], the IC50 in experiment [1] was found to be 0.065 µM; in experiment [2], 0.46 µM.

Take `O=c1[nH]c(CO)nc(C(F)(F)F)c1Cc1ccc(Cl)c(Cl)c1` [Example 51, 5-(3,4-Dichlorobenzyl)-2-(hydroxymethyl)-6-(trifluoromethyl)pyrimidin-4(3H)-one]: the IC50 is 0.014 µM in experiment [1] and 0.23 µM in experiment [2].

For `O=c1[nH]c(CO)nc(C(F)(F)F)c1Oc1ccc(F)c(Cl)c1` [Example 52], the IC50 came out at 0.0078 µM in experiment [1] and 0.14 µM in experiment [2].

Regarding `O=c1[nH]c(CO)nc(C(F)(F)F)c1Oc1ccc(F)c(F)c1` [Example 53], the IC50 was determined as 0.07 µM in experiment [1] and 0.62 µM in experiment [2].

For `O=c1[nH]c(CO)nc(C(F)(F)F)c1Oc1cccc(Cl)c1` [Example 54], the IC50 is 0.01 µM in experiment [1] and 0.14 µM in experiment [2].

With `O=c1[nH]c(CO)nc(C(F)(F)F)c1Oc1ccc(Cl)c(F)c1` [Example 55], the values for the half-maximal inhibitory concentration (IC50) in experiment [1] and in experiment [2] were 0.0062 µM and 0.12 µM, respectively.

Turning to `NC(=O)Nc1nc(C(F)(F)F)c(Cc2ccc(Cl)c(Cl)c2)c(=O)[nH]1` [Example 56, 1-[5-(3,4-Dichlorobenzyl)-6-oxo-4-(trifluoromethyl)-1,6-dihydropyrimidin-2-yl]urea], the IC50 was 0.017 µM in experiment [1] and 0.33 µM in experiment [2].

Turning to `CN(C)c1nc(C(F)(F)F)c(Oc2ccc(Cl)c(Cl)c2)c(=O)[nH]1` [Example 67], the results for the IC50 in experiment [1] and in experiment [2] were 0.055 µM and 1 µM, respectively.
